Results published in patent publication US10189816B2, “Substituted pyridines as inhibitors of human immunodeficiency virus replication” (priority 2015, dated 2019).
Where two headings read alike, the source gives them in different places.

System: NL-RLuc virus
Experiment: Inhibition of HIV replication (NL-RLuc reporter virus in MT-2 cells, luciferase readout)
Assay type: cell-based
Conditions: Human immunodeficiency virus 1, MT2, 120 h
From the text: Inhibition of HIV replication: A recombinant NL-RLuc proviral clone was constructed in which a section of the nef gene from NL4-3 was replaced with the Renilla Luciferase gene. This virus is fully infectious and can undergo multiple cycles of replication in cell culture. In addition, the luciferous reporter provides a simple and easy method for quantitating the extent of virus growth and consequently, the antiviral activity of test compounds. The plasmid pNLRLuc contains the proviral NL-Rluc DNA cloned into pUC18 at the PvuII site. The NL-RLuc virus was prepared by transfection of 293T cells with the plasmid pNLRLuc. Transfections were performed using the LipofectAMINE PLUS kit from Invitrogen (Carlsbad, Calif.) according to the manufacturer and the virus generated was titered in MT-2 cells. For susceptibility analyses, the titrated virus was used to infect MT-2 cells in the presence of compound, and after 5 days of incubation, cells were processed and quantitated for virus growth by the amount of expressed luciferase. Assay media was RPMI 1640 supplemented with 10% heat inactivated fetal bovine serum (FBS), 100 units/ml penicillin G/100 units/ml streptomycin, 10 mM HEPES buffer pH 7.55 and 2 mM L-glutamine. The results from at least 2 experiments were used to calculate the EC50 values. Luciferase was quantitated using the Dual Luciferase kit from Promega (Madison, Wis.). Susceptibility of viruses to compounds was determined by incubation in the presence of serial dilutions of the compound. The 50% effective concentration (EC50) was calculated by using the exponential form of the median effect equation where (Fa)=1/[1+(ED50/drug conc.)^m] (Johnson V A, Byington R T. Infectivity Assay. In Techniques in HIV Research. ed. Aldovini A, Walker B D. 71-76. New York: Stockton Press.1990). Activity equal to A refers to a compound having an EC50≤100 nM, while B and C denote compounds having an EC50 between 100 nM and 1 uM (B) or >1 uM (C).

| SMILES | EC50 (read-out: Activity) [µM] | EC50 (read-out: EC50 μM) [µM] |
| --- | --- | --- |
| Cc1nc(C)c([C@H](OC(C)(C)C)C(=O)O)c(N2CCC(C)(C)CC2)c1-c1ccc2c(c1)CCN(Cc1ccc(F)cc1)C2 [Compound 1, (S)-2-(tert-butoxy)-2-(4-(4,4-dimethylpiperidin-1-yl)-5-(2-(4-fluorobenzyl)-1,2,3,4-tetrahydroisoquinolin-6-yl)-2,6-dimethylpyridin-3-yl)acetic acid] | < 0.1 | 0.006 |
| Cc1nc(C)c([C@H](OC(C)(C)C)C(=O)O)c(N2CCC(C)(C)CC2)c1-c1ccc2c(c1)CCN(Cc1cccc(C(F)(F)F)c1)C2 [Compound 2, (S)-2-(tert-butoxy)-2-(4-(4,4-dimethylpiperidin-1-yl)-2,6-dimethyl-5-(2-(3-(trifluoromethyl)benzyl)-1,2,3,4-tetrahydroisoquinolin-6-yl)pyridin-3-yl)acetic acid] | < 0.1 |  |
| Cc1cccc(CN2CCc3cc(-c4c(C)nc(C)c([C@H](OC(C)(C)C)C(=O)O)c4N4CCC(C)(C)CC4)ccc3C2)c1 [Compound 3, (S)-2-(tert-butoxy)-2-(4-(4,4-dimethylpiperidin-1-yl)-2,6-dimethyl-5-(2-(3-methylbenzyl)-1,2,3,4-tetrahydroisoquinolin-6-yl)pyridin-3-yl)acetic acid] | < 0.1 |  |
| Cc1ccccc1CN1CCc2cc(-c3c(C)nc(C)c([C@H](OC(C)(C)C)C(=O)O)c3N3CCC(C)(C)CC3)ccc2C1 [Compound 4, (S)-2-(tert-butoxy)-2-(4-(4,4-dimethylpiperidin-1-yl)-2,6-dimethyl-5-(2-(2-methylbenzyl)-1,2,3,4-tetrahydroisoquinolin-6-yl)pyridin-3-yl)acetic acid] | < 0.1 |  |
| Cc1ccc(CN2CCc3cc(-c4c(C)nc(C)c([C@H](OC(C)(C)C)C(=O)O)c4N4CCC(C)(C)CC4)ccc3C2)cc1 [Compound 5, (S)-2-(tert-butoxy)-2-(4-(4,4-dimethylpiperidin-1-yl)-2,6-dimethyl-5-(2-(4-methylbenzyl)-1,2,3,4-tetrahydroisoquinolin-6-yl)pyridin-3-yl)acetic acid] | < 0.1 |  |
| COc1cccc(CN2CCc3cc(-c4c(C)nc(C)c([C@H](OC(C)(C)C)C(=O)O)c4N4CCC(C)(C)CC4)ccc3C2)c1 [Compound 6, (S)-2-(tert-butoxy)-2-(4-(4,4-dimethylpiperidin-1-yl)-5-(2-(3-methoxybenzyl)-1,2,3,4-tetrahydroisoquinolin-6-yl)-2,6-dimethylpyridin-3-yl)acetic acid] | < 0.1 |  |
| Cc1nc(C)c([C@H](OC(C)(C)C)C(=O)O)c(N2CCC(C)(C)CC2)c1-c1ccc2c(c1)CCN(Cc1cccc(F)c1)C2 [Compound 7, (S)-2-(tert-butoxy)-2-(4-(4,4-dimethylpiperidin-1-yl)-5-(2-(3-fluorobenzyl)-1,2,3,4-tetrahydroisoquinolin-6-yl)-2,6-dimethylpyridin-3-yl)acetic acid] | < 0.1 | 0.004 |
| Cc1nc(C)c([C@H](OC(C)(C)C)C(=O)O)c(N2CCC(C)(C)CC2)c1-c1ccc2c(c1)CCN(Cc1ccc(C(F)(F)F)cc1)C2 [Compound 8, (S)-2-(tert-butoxy)-2-(4-(4,4-dimethylpiperidin-1-yl)-2,6-dimethyl-5-(2-(4-(trifluoromethyl)benzyl)-1,2,3,4-tetrahydroisoquinolin-6-yl)pyridin-3-yl)acetic acid] | < 0.1 |  |
| Cc1nc(C)c([C@H](OC(C)(C)C)C(=O)O)c(N2CCC(C)(C)CC2)c1-c1ccc2c(c1)CCN(Cc1ccccc1F)C2 [Compound 9, (S)-2-(tert-butoxy)-2-(4-(4,4-dimethylpiperidin-1-yl)-5-(2-(2-fluorobenzyl)-1,2,3,4-tetrahydroisoquinolin-6-yl)-2,6-dimethylpyridin-3-yl)acetic acid] | < 0.1 |  |
| Cc1nc(C)c([C@H](OC(C)(C)C)C(=O)O)c(N2CCC(C)(C)CC2)c1-c1ccc2c(c1)CCN(Cc1cccc(C(=O)O)c1)C2 [Compound 10, (S)-3-((6-(5-(tert-butoxy(carboxy)methyl)-4-(4,4-dimethylpiperidin-1-yl)-2,6-dimethylpyridin-3-yl)-3,4-dihydroisoquinolin-2(1H)-yl)methyl)benzoic acid] | > 1 | 1.48 |
